This note sets out measurements from patent US11192866B2, “Synthesis of tetracyclines and analogues thereof” (President and Fellows of Harvard College, priority 2004, dated 2021).

The experiment relates to Gram-positive strains. Nature of the experiment: Whole-cell antibacterial MIC assay (NCCLS serial dilution), Gram-positive strains. As to conditions: each of the Gram-positive strains examined, including strains with resistance to tetracycline, methicillin, and vancomycin. The class given is cell-based. The protocol:
The efficiencies of the synthetic sequences have allowed for the preparation of sufficient quantities of each tetracycline analog for antibacterial testing using standard serial-dilution techniques (5-20 mg amounts). Minimum inhibitory concentrations (MICs) are reported for each analog in whole-cell antimicrobial assays using five Gram-positive and five Gram-negative organisms (FIGS. 18A to 18C).
Whole-cell antibacterial activity was determined according to methods recommended by the NCCLS (National Committee for Clinical Laboratory Standards. 2002. Methods for dilution antimicrobial susceptibility tests for bacteria that grow aerobically: approved standard-fifth edition. NCCLS document M100-S12. National Committee for Clinical Laboratory Standards. Wayne, Pa.; incorporated herein by reference). Test compounds were dissolved in dimethyl sulfoxide (DMSO) and the resulting solutions were diluted in water (1:10) to produce stock solutions with a final concentration of 256 μg tetracycline analog per mL. In a 96-well microtiter plate, 50-μL aliquots of stock solutions were diluted serially into cation-adjusted Mueller-Hinton broth (MHB; Becton-Dickinson, Cockeysville, Md.). Test organisms (50 μL aliquots of solutions […]) were then added to the appropriate wells of the microtiter plate. […] The MIC was the lowest concentration of compound determined to inhibit visible growth. […]

Structures are written as SMILES.

For the molecule `CN(C)[C@@H]1C(O)=C(C(N)=O)C(=O)[C@@]2(O)C(O)=C3C(=O)c4c(cc5ccccc5c4O)C[C@H]3C[C@@H]12` [pentacycline derivative 6], the “antibacterial activity compared with tetracycline” value is on record as “activity equal to or greater than tetracycline”.
